Tests used:
[1] = rat; DHA TG supplementation; cited from earlier work
[2] = doses of approximately 1200 mg/day; cited from earlier work
[3] = Clinical study in healthy subjects: body weight, BMI, blood pressure, pulse; format: in vivo, human; conditions: 6 weeks
Experimental: The goal of this study was to test the safety and efficacy of an EPA-enriched oil (as described in Examples 1-3; E.I. duPont de Nemours & Co., Inc. Applied Biosciences, Wilmington, Del.), to corroborate the safety of a novel oil rich in EPA in humans prior to this product being placed on the market as a dietary supplement. This oil was tested at doses of 600 mg and 1800 mg of EPA/day as compared […] parallel arm design in approximately 120 healthy adults studied in both the fasting and post-prandial state. Safety was monitored by assessing for adverse reactions, measuring vital signs and a variety of laboratory tests including a complete metabolic profile, thyroid function tests, complete blood count, and prothrombin time.
The objective was to carry out a double blinded, randomized, placebo-controlled trial in 120 healthy subjects between 20-70 years of age over a 6 week period comparing the effects of an EPA-enriched oil provided at daily […] Specific parameters investigated included changes in body weight, heart rate, blood pressure, complete blood count, comprehensive metabolic profile, lipid and lipoprotein measures in the fasted and fed state, fatty acid profiles, and inflammation markers.
At all visits the following information was recorded: weight in pounds and kilograms, height in centimeters [“cm”] and inches, waist circumference in cm and inches, resting heart rate, systolic blood pressure, diastolic blood pressure, and a brief dietary assessment to assure continued lack of high fish intake and/or flax seed or fish oil dietary supplements. Blood pressure and pulse measurements were done 3 times on each visit after the subjects had been sitting quietly for 5 minutes.
At the time of the enrollment visit all subjects were randomly allocated into a protocol where they were required to take two capsules three times daily which contained a either: 1) olive oil placebo; 2) 600 mg/day of EPA/day; 3) 1800 mg of EPA/day; and, […]). The EPA oils are notable for their low levels of saturated fatty acids, particularly with regard to the DHA oil. Specifically, the composition of the DHA oil was as follows (g fatty acid per 100 g of oil): 14.1 g myristic acid (14:0), 10.8 g palmitic acid (16:0), 2 g palmitoleic acid (16.1), 7.4 g margaric acid (17:0), 8.4 g oleic acid (18:1), 0.1 g EPA (20:5n3), 0.9 g DPA (22:5n6) and 37.9 g DHA (22:6n3).
At visit 2, subjects were again asked to fast for 12 hours, and information about subject characteristics including all vital signs, recent illness or hospitalization, medication and supplement use, and diet information was again obtained. […] At one week and three weeks after beginning the supplements, all study subjects were contacted by telephone and asked about any adverse effects and about their compliance, and the information on their calendars with regard to capsule use and fish intake. They were also asked about whether they had experienced any fishy aftertaste or odor, and if so, how frequent were these episodes, and how unpleasant were they? The entire process as listed above was repeated after study subjects were on the study capsules for 6 weeks at the time of the final visit. Compliance and adverse events were assessed by telephone at weeks 1 and 3 by telephone and at week 6 by questionnaire and capsule count. Over 42 days, subjects were expected to have consumed a total of 252 capsules. Compliance was calculated as a percentage of consumed capsule count/expected capsule count based on the number of days the subject was in the study. All subjects were asked to stay on their capsules until they come in for their final visit. Compliance in all participants who completed the study was based on capsule count was in excess of 85%, mean 96%.
Statistical analyses compared mean absolute and percentage changes from baseline and 6 weeks in the active groups versus the placebo group. Analysis of variance, as well as paired t-test analysis were performed with SYSTAT software. […]

## CCC=CCC=CCC=CCC=CCC=CC/C=C\CCC(=O)O [DHA, cis-4,7, 10, 13, 16, 19-docosahexaenoic acid, reference compound]
[1]
  plasma and erythrocyte DHA content, DHA TG versus DHA EE: higher
[2]
  lowering of triglyceride levels: about 25%

## CCC=CCC=CCC=CCC=CC/C=C\CCCC(=O)O [EPA, cis-5,8, 11, 14, 17-eicosapentaenoic acid]
[3]; EPA 600 mg (n = 27)
  BMI, 6-Week Change (%): +0.2 ± 2.3%
  BMI, Final: 27.4 ± 3.1 kg/m^2
  Diastolic BP, Final: 80.0 ± 7.9 mm
  Pulse, 6-Week Change (%): +2.1 ± 13.6%
  Pulse, Final: 74.7 ± 12.0 beats/min
  Systolic BP, 6-Week Change (%): +3.0 ± 10.4%
  Systolic BP, Final: 121.1 ± 12.2 mm Hg
  Weight, 6-Week Change (%): +0.2 ± 2.1%
  Weight, Final: 80.4 ± 10.9 kg
[3]; EPA 1800 mg (n = 29)
  BMI, 6-Week Change (%): +1.1 ± 5.1%
  BMI, Final: 27.9 ± 5. kg/m2
  Diastolic BP, 6-Week Change (%): +1.4 ± 9.1%
  Diastolic BP, Final: 77.4 ± 9.0 mm
  Pulse, 6-Week Change (%): +2.7 ± 8.6%
  Pulse, Final: 70.9 ± 8.5 beats/min
  Systolic BP, 6-Week Change (%): +1.0 ± 7.4%
  Systolic BP, Final: 119.9 ± 13.4 mm Hg
  Weight, 6-Week Change (%): +1.3 ± 4.6%
  Weight, Final: 81.6 ± 19.2 kg

From patent US20110178105A1, “CLINICAL BENEFITS OF EICOSAPENTAENOIC ACID IN HUMANS” (E.I. DU PONT DE NEMOURS AND COMPANY, priority 2010, published 2011)
